Laboratory results taken from patent US6660283B2, “Use of cinnamic acid, or of at least one of its derivatives in a cosmetic composition” (Societe L'Oreal S.A., priority 1997, dated 2003).

Tested on: reconstructed human epidermis
Assay: Incorporation of 14C acetate into total lipids of reconstructed human epidermis (Skinethic)
Format: cell-based
Conditions: for percentage of stimulation (incorporation of 14C acetate, lipid synthesis): relative to untreated cells = 100
Procedure: The study is carried out by measuring the incorporation of carbon-14-labelled acetate in models of reconstructed human epidermis sold by the company Skinethic, in which the composition of total lipids is close to that of normal human epidermis.
The reconstructed human epidermis cultures are prepared according to the supplier's recommendations.
Cinnamic acid, at concentrations of 10^−5, 10^−6 and 10^−7 M, is placed in contact for 72 hours with reconstructed human epidermes after they have been cultured for 14 days under the conditions recommended by the supplier. The labelling with ^14C acetate (sodium [2-^14C]-acetate sold by Amersham, 59 mCi/mmol) is carried out 24 hours after placing the test product in contact with the culture, i.e. during the final 48 hours of culturing, at a rate of 0.5 μCi of ^14C acetate per culture.
At the end of culturing, after washing the epidermes with phosphate buffer (PBS), the epidermides are dissociated and the cells are lysed with 0.5M perchloric acid on ice. The lysates are then extracted with a methanol/chloroform mixture (2:1), centrifuged and the pellets obtained are extracted again under the same conditions as before. The lipids are separated out by addition of PBS and chloroform (Blight-Byer technique). The organic phase containing the lipids is taken off and the radioactive incorporated in this phase is determined by liquid scintillation. The organic phase is then dried under a stream of nitrogen. Thin layer plate chromatography on Merck K60 plates is carried out using, as eluent, a chloroform/methanol/water mixture (50/18/2.6) to separate the phospholipids, or a hexane/ether/acetic acid mixture (15/5.6/0.19) to separate the neutral lipids.
The plates are then autoradiographed for 24 hours and the chromatograms are analysed by densitometry using the One-D-Scan software from the company Scanalytics.
The results are evaluated relative to a control consisting of cells which have not been treated with cinnamic acid.
A positive control (10^−4 M trifluoperazine), which is known to stimulate lipid synthesis, and a negative control (10^−6 M retinoic acid), which is known to inhibit lipid synthesis, are introduced into the test as reference.

O=C(O)C=Cc1ccccc1 [cinnamic acid]
percentage of stimulation (incorporation of 14C acetate, lipid synthesis) (10^−5 M, 72 hours contact): 113% | percentage of stimulation (incorporation of 14C acetate, lipid synthesis) (10^−6 M, 72 hours contact): 109% | percentage of stimulation (incorporation of 14C acetate, lipid synthesis) (10^−7 M, 72 hours contact): 124% | effect on incorporation of 14C acetate (lipid synthesis), in words (reconstructed human epidermis, 10^−5 to 10^−7 M): significantly stimulates

CC1=C(/C=C/C(C)=C/C=C/C(C)=C/C(=O)O)C(C)(C)CCC1 [retinoic acid, reference compound]
percentage of stimulation (incorporation of 14C acetate, lipid synthesis) (10^−6 M, 72 hours contact): 82%

CN1CCN(CCCN2c3ccccc3Sc3ccc(C(F)(F)F)cc32)CC1 [trifluoroperazine, trifluoperazine, reference compound]
percentage of stimulation (incorporation of 14C acetate, lipid synthesis) (10^−4 M): 122%
